Reference: patent US12441689B2 (EpiVario, Inc., priority 2019, dated 2025)

Biological target: human ACSS2 protein (Homo sapiens (Human), UniProt Q9NR19)
Test: ACSS2 Cell-Free Activity Assay (Cell-Free IC50)
Conditions: 10 nM human ACSS2 protein, 90 minutes at 37 C, pyrophosphatase-coupled, Biomol Green absorbance at 620 nm; read-out: ACSS2 Biochemical IC50
Description: ACSS2 Cell-Free Activity Assay (Cell-Free IC50)

Sequence of human ACSS2 protein (Q9NR19 whole entry): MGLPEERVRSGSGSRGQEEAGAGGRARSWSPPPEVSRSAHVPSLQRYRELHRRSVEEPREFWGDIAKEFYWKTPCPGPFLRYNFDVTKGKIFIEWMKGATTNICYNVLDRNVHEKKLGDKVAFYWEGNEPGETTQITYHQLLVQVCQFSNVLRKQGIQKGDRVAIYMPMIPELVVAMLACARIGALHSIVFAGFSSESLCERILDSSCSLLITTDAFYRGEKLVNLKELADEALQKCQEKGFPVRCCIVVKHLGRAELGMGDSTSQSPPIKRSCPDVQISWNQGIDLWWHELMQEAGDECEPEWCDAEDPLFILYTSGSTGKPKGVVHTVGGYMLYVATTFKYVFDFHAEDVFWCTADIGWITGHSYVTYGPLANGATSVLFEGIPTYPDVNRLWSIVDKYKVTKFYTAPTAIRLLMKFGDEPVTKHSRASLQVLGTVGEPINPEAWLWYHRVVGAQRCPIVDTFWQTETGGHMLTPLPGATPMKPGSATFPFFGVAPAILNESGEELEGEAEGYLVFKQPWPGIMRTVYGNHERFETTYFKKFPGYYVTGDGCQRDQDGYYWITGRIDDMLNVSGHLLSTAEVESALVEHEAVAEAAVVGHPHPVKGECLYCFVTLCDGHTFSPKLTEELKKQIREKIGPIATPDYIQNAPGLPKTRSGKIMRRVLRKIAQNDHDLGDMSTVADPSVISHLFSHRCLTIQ

IC50, 1 to 100 nM:
CCC(F)(F)c1cccc(NC(=O)C2C(=O)N(c3cc(CC4CCCCC4)c(OC)c(-c4ccccc4)c3)N=C2C)c1 (stereo not shown) [Compound 128, 1-(5-(cyclohexylmethyl)-6-methoxy-[1,1′-biphenyl]-3-yl)-N-(3-(1,1-difluoropropyl)phenyl)-3-methyl-5-oxo-4,5-dihydro-1H-pyrazole-4-carboxamide]
COc1c(CC2CCCCC2)cc(N2N=C(C)C(C(=O)Nc3cccc(C(C)(F)F)c3)C2=O)cc1-c1ccccc1 (stereo not shown) [Compound 129, 1-(5-(cyclohexylmethyl)-6-methoxy-[1,1′-biphenyl]-3-yl)-N-(3-(1,1-difluoroethyl)phenyl)-3-methyl-5-oxo-4,5-dihydro-1H-pyrazole-4-carboxamide]
Cc1cc(C(=O)Nc2cccc(C(C)(F)F)c2)nc(-c2ccc(OC(F)F)c(-c3ccccc3)c2)n1 [Compound 130, N-(3-(1,1-difluoroethyl)phenyl)-2-(6-(difluoromethoxy)-[1,1′-biphenyl]-3-yl)-6-methylpyrimidine-4-carboxamide]
Cc1nc(-c2ccc(OC(F)F)c(-c3ccccc3)c2)cnc1C(=O)Nc1cccc(C(C)(F)F)c1 [Compound 135, N-[3-(1,1-difluoroethyl)phenyl]-5-[4-(difluoromethoxy)-3-phenyl-phenyl]-3-methyl-pyrazine-2-carboxamide]
CCC(F)(F)c1cccc(NC(=O)c2oc(-c3ccc(OC)cc3)nc2C)c1 [Compound 136, N-(3-(1,1-difluoropropyl)phenyl)-2-(4-methoxyphenyl)-4-methyloxazole-5-carboxamide]
CCC(F)(F)c1cccc(NC(=O)c2cc(C)nc(-c3ccc(OC(F)F)cc3)n2)c1 [Compound 137, 2-(4-(difluoromethoxy)phenyl)-N-(3-(1,1-difluoropropyl)phenyl)-6-methylpyrimidine-4-carboxamide]
Cc1nn(-c2ccc(OC(F)F)cc2)c(C2CC2)c1C(=O)Nc1cccc(C(C)(F)F)c1 [Compound 145, 5-cyclopropyl-N-[3-(1,1-difluoroethyl)phenyl]-1-[4-(difluoromethoxy)phenyl]-3-methyl-pyrazole-4-carboxamide]
Cc1cc(C(=O)Nc2cccc(C(C)(F)F)c2)nc(-c2ccc(OC(F)F)cc2)n1 [Compound 147, N-(3-(1,1-difluoroethyl)phenyl)-2-(4-(difluoromethoxy)phenyl)-6-methylpyrimidine-4-carboxamide]
CCC1(C(=O)Nc2cccc(C(C)(F)F)c2)C(=O)N(c2ccc(OC(F)F)cc2)N=C1C (stereo not shown) [Compound 159, N-(3-(1,1-difluoroethyl)phenyl)-1-(4-(difluoromethoxy)phenyl)-4-ethyl-3-methyl-5-oxo-4,5-dihydro-1H-pyrazole-4-carboxamide]
CNc1c(C(=O)Nc2cccc(C(C)(F)F)c2)c(C)nn1-c1ccc(OC(F)F)cc1 [Compound 162, N-(3-(1,1-difluoroethyl)phenyl)-1-(4-(difluoromethoxy)phenyl)-3-methyl-5-(methylamino)-1H-pyrazole-4-carboxamide]

IC50, < 1 nM:
CCCc1cc(N2N=C(C)C(C(=O)Nc3cccc(C(C)(F)F)c3)C2=O)cc(-c2ccccc2)c1OC (stereo not shown) [Compound 161, N-(3-(1,1-difluoroethyl)phenyl)-1-(6-methoxy-5-propyl-[1,1′-biphenyl]-3-yl)-3-methyl-5-oxo-4,5-dihydro-1H-pyrazole-4-carboxamide]

IC50, > 100 nM:
CCC(F)(F)c1cccc(NC(=O)c2cc(C)nc(-c3ccc(OC(F)F)c(-c4ccccc4)c3)n2)c1 [Compound 127, 2-(6-(difluoromethoxy)-[1,1′-biphenyl]-3-yl)-N-(3-(1,1-difluoropropyl)phenyl)-6-methylpyrimidine-4-carboxamide]
Cc1nc(-c2cc(-n3cc(C(=O)Nc4cccc(C(C)(F)F)c4)c(C)n3)ccc2OC(F)F)co1 [Compound 131, N-(3-(1,1-difluoroethyl)phenyl)-1-(4-(difluoromethoxy)-3-(2-methyloxazol-4-yl)phenyl)-3-methyl-1H-pyrazole-4-carboxamide]
CCC(F)(F)c1cccc(NC(=O)c2ncc(-c3ccc(OC(F)F)cc3)nc2C)c1 [Compound 132, 5-(4-(difluoromethoxy)phenyl)-N-(3-(1,1-difluoropropyl)phenyl)-3-methylpyrazine-2-carboxamide]
Cc1nc(-c2ccc(OC(F)F)cc2)cnc1C(=O)Nc1cccc(C(C)(F)F)c1 [Compound 133, N-(3-(1,1-difluoroethyl)phenyl)-5-(4-(difluoromethoxy)phenyl)-3-methylpyrazine-2-carboxamide]
CCC(F)(F)c1cccc(NC(=O)c2ncc(-c3ccc(OC(F)F)c(-c4ccccc4)c3)nc2C)c1 [Compound 134, 5-[4-(difluoromethoxy)-3-phenyl-phenyl]-N-[3-(1,1-difluoropropyl)phenyl]-3-methyl-pyrazine-2-carboxamide]
CCC(F)(F)c1cccc(NC(=O)c2cnc(-c3ccc(OC(F)F)c(-c4ccccc4)c3)nc2C)c1 [Compound 138, 2-[4-(difluoromethoxy)-3-phenyl-phenyl]-N-[3-(1,1-difluoropropyl)phenyl]-4-methyl-pyrimidine-5-carboxamide]
Cc1nc(-c2ccc(OC(F)F)c(-c3ccccc3)c2)ncc1C(=O)Nc1cccc(C(C)(F)F)c1 [Compound 139, N-[3-(1,1-difluoroethyl)phenyl]-2-[4-(difluoromethoxy)-3-phenyl-phenyl]-4-methyl-pyrimidine-5-carboxamide]
Cc1nc(-c2ccc(OC(F)F)cc2)oc1C(=O)Nc1cccc(C(C)(F)F)c1 [Compound 141, N-(3-(1,1-difluoroethyl)phenyl)-2-(4-(difluoromethoxy)phenyl)-4-methyloxazole-5-carboxamide]
COc1ccc(-c2nc(C)c(C(=O)Nc3cccc(C(C)(F)F)c3)o2)cc1 [Compound 142, N-(3-(1,1-difluoroethyl)phenyl)-2-(4-methoxyphenyl)-4-methyloxazole-5-carboxamide]
CCC(F)(F)c1cccc(NC(=O)c2cnc(-c3ccc(OC(F)F)cc3)nc2C)c1 [Compound 143, 2-[4-(difluoromethoxy)phenyl]-N-[3-(1,1-difluoropropyl)phenyl]-4-methyl-pyrimidine-5-carboxamide]
Cc1nc(-c2ccc(OC(F)F)cc2)ncc1C(=O)Nc1cccc(C(C)(F)F)c1 [Compound 144, N-[3-(1,1-difluoroethyl)phenyl]-2-[4-(difluoromethoxy)phenyl]-4-methyl-pyrimidine-5-carboxamide]
Cc1nn(-c2ccc(OC(F)F)cc2)c(C(C)C)c1C(=O)Nc1cccc(C(C)(F)F)c1 [Compound 146, N-[3-(1,1-difluoroethyl)phenyl]-1-[4-(difluoromethoxy)phenyl]-5-isopropyl-3-methyl-pyrazole-4-carboxamide]
CCc1c(C(=O)Nc2cccc(C(C)(F)F)c2)c(C)nn1-c1ccc(OC(F)F)c(-c2ccccn2)c1 [Compound 148, N-[3-(1,1-difluoroethyl)phenyl]-1-[4-(difluoromethoxy)-3-(2-pyridyl)phenyl]-5-ethyl-3-methyl-pyrazole-4-carboxamide]
Cc1nn(-c2ccc(OC(F)F)c(-c3cocn3)c2)cc1C(=O)Nc1cccc(C(C)(F)F)c1 [Compound 149, N-(3-(1,1-difluoroethyl)phenyl)-1-(4-(difluoromethoxy)-3-(oxazol-4-yl)phenyl)-3-methyl-1H-pyrazole-4-carboxamide]
Cc1nn(-c2ccc(OC(F)F)cc2)c(CC(C)C)c1C(=O)Nc1cccc(C(C)(F)F)c1 [Compound 150, N-(3-(1,1-difluoroethyl)phenyl)-1-(4-(difluoromethoxy)phenyl)-5-isobutyl-3-methyl-1H-pyrazole-4-carboxamide]
CCc1c(C(=O)Nc2cccc(C(C)(F)F)c2)c(C)nn1-c1ccc(OC(F)F)c(-c2ccccc2)c1 [Compound 151, N-[3-(1,1-difluoroethyl)phenyl]-1-[4-(difluoromethoxy)-3-phenyl-phenyl]-5-ethyl-3-methyl-pyrazole-4-carboxamide]
CCc1c(C(=O)Nc2cccc(C(C)(F)F)c2)c(C)nn1-c1ccc(OC(F)F)c(-c2cccnc2)c1 [Compound 152, N-[3-(1,1-difluoroethyl)phenyl]-1-[4-(difluoromethoxy)-3-(3-pyridyl)phenyl]-5-ethyl-3-methyl-pyrazole-4-carboxamide]
COc1ccc(-c2nc(C(=O)Nc3cccc(C(C)(F)F)c3)c(C)o2)cc1 [Compound 153, N-[3-(1,1-difluoroethyl)phenyl]-2-(4-methoxyphenyl)-5-methyl-oxazole-4-carboxamide]
Cc1nn(-c2ccc(OC(F)F)cc2)c(C2CCCC2)c1C(=O)Nc1cccc(C(C)(F)F)c1 [Compound 154, 5-cyclopentyl-N-[3-(1,1-difluoroethyl)phenyl]-1-[4-(difluoromethoxy)phenyl]-3-methyl-pyrazole-4-carboxamide]
CCc1nn(-c2ccc(OC(F)F)cc2)c(C)c1C(=O)Nc1cccc(C(C)(F)F)c1 [Compound 155, N-(3-(1,1-difluoroethyl)phenyl)-1-(4-(difluoromethoxy)phenyl)-3-ethyl-5-methyl-1H-pyrazole-4-carboxamide]
CCc1c(C(=O)Nc2cccc(C(C)(F)F)c2)c(C)nn1-c1ccc(OC(F)F)cc1 [Compound 156, N-(3-(1,1-difluoroethyl)phenyl)-1-(4-(difluoromethoxy)phenyl)-5-ethyl-3-methyl-1H-pyrazole-4-carboxamide]
CC1=NN(c2ccc(OC(F)F)cc2)C(=O)C1(C)C(=O)Nc1cc(C)cc(Cl)c1 (stereo not shown) [Compound 157, N-(3-chloro-5-methyl-phenyl)-1-[4-(difluoromethoxy)phenyl]-3,4-dimethyl-5-oxo-pyrazole-4-carboxamide]
CCCC1(C(=O)Nc2cccc(C(C)(F)F)c2)C(=O)N(c2ccc(OC(F)F)cc2)N=C1C (stereo not shown) [Compound 158, N-(3-(1,1-difluoroethyl)phenyl)-1-(4-(difluoromethoxy)phenyl)-3-methyl-5-oxo-4-propyl-4,5-dihydro-1H-pyrazole-4-carboxamide]
